The values below come from patent US12662461B2, “Tricyclic compound and pharmaceutical use thereof” (JD BIOSCIENCE INC., priority 2019, dated 2026).

Where a name gives a salt, the structure may show the parent alone.

Chain of serotonin 2A (5-HT2A) receptor (P28223 whole entry, species assumed): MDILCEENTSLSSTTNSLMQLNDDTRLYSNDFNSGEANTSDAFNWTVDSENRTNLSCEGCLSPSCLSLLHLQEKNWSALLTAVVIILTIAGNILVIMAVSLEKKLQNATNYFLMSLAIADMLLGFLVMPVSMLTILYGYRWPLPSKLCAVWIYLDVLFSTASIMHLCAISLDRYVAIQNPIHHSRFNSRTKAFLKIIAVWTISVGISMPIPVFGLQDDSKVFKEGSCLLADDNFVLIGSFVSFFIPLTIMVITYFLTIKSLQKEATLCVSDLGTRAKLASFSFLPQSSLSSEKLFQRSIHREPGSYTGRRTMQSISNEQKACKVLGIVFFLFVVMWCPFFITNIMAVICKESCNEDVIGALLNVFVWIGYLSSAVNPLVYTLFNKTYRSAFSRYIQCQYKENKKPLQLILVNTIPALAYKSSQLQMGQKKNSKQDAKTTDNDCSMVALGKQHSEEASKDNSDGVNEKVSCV

The assay has as its target serotonin 2A (5-HT2A) receptor (Homo sapiens, UniProt P28223). The assay is described as follows: Measurement of inhibitory activity against serotonin 2A receptor (in vitro). The assay is classed as biochemical. Conditions: inhibitory activity against serotonin 2A (5-HT2A) receptor. From the text: Experimental Example: Measurement of Inhibitory Activity Against Serotonin 2A Receptor
Usually IC50 stands for the concentration that inhibits the measured activity by half. Lower therefore signals greater potency in that assay. As for `O=c1[nH]c2ccccc2c(=O)n1CCN1CCC(=C2c3ccc(Cl)cc3CCc3cccnc32)CC1` [Example 12, 3-(2-(4-(8-chloro-5,6-dihydro-11H-benzo[5,6]cyclohepta[1,2-b]pyridin-11-ylidene)piperidin-1-yl)ethyl)quinazoline-2,4(1H,3H)-dione], 47 nM corresponded to half-maximal inhibition (IC50). This counts as double-digit nanomolar.

The compound `CN1CCC(=C2c3ccc(Cl)cc3CCc3cccnc32)CC1` [Example 13, 8-chloro-11-(1-methylpiperidin-4-ylidene)-6,11-dihydro-5H-benzo[5,6]cyclohepta[1,2-b]pyridine] came in with an IC50 of 119 nM. This IC50 is about 2.5-fold higher than that of the compound before.

Regarding `N[C@@H](Cc1ccc(OCCCCN2CCC(=C3c4ccc(Cl)cc4CCc4cccnc43)CC2)cc1)C(=O)O` [Example 14, (S)-2-amino-3-(4-(4-(4-(8-chloro-5,6-dihydro-11H-benzo[5,6]cyclohepta[1,2-b]pyridin-11-ylidene)piperidin-1-yl)butoxy)phenyl)propionic acid trihydrochloride], the IC50 came out at 188 nM.

On to `Cc1nc2sccn2c1C(O)CN1CCC(=C2c3ccc(Cl)cc3CCc3cccnc32)CC1` (stereo not shown) [Example 15, 2-(4-(8-chloro-5,6-dihydro-11H-benzo[5,6]cyclohepta[1,2-b]pyridin-11-ylidene)piperidin-1-yl)-1-(6-methylimidazo[2,1-b]thiazol-5-yl)ethan-1-ol], for which the IC50 came to 30 nM. Against the preceding compound, the IC50 is about 6.3-fold lower.

Regarding `O=C1CCc2ccc(OCCCCN3CCC(=C4c5ccc(Cl)cc5CCc5cccnc54)CC3)cc2N1` [Example 18, 7-(4-(4-(8-chloro-5,6-dihydro-11H-benzo[5,6]cyclohepta[1,2-b]pyridin-11-ylidene)piperidin-1-yl)butoxy)-3,4-dihydroquinolin-2(1H)-one], half-maximal inhibition (IC50) required 1.3 nM.

With `O=C1C2CCCCC2C(=O)N1CCCCN1CCC(=C2c3ccc(Cl)cc3CCc3cccnc32)CC1` (stereo not shown) [Example 19, 2-(4-(4-(8-chloro-5,6-dihydro-11H-benzo[5,6]cyclohepta[1,2-b]pyridin-11-ylidene)piperidin-1-yl)butyl)hexahydro-1H-isoindole-1,3(2H)-dione], the IC50 was found to be 0.19 nM.

Turning to `N[C@@H](Cc1ccc(OCCCCN2CCC(=C3c4ccc(Cl)cc4CCc4cccnc43)CC2)c(Cl)c1)C(=O)O` [Example 20, (S)-2-amino-3-(3-chloro-4-(4-(4-(8-chloro-5,6-dihydro-11H-benzo[5,6]cyclohepta[1,2-b]pyridin-11-ylidene)piperidin-1-yl)butoxy)phenyl)propionic acid trihydrochloride], the IC50 came to 2.08 nM. This IC50 is about 11-fold higher than that of the compound before.

`N[C@@H](Cc1ccc(OCCCN2CCC(=C3c4ccc(Cl)cc4CCc4cccnc43)CC2)c(Cl)c1)C(=O)O` [Example 21, (S)-2-amino-3-(3-chloro-4-(3-(4-(8-chloro-5,6-dihydro-11H-benzo[5,6]cyclohepta[1,2-b]pyridin-11-ylidene)piperidin-1-yl)propoxy)phenyl)propionic acid trihydrochloride] returned an IC50 of 2.1 nM. The IC50 values of the last two compounds are within 1.5-fold of each other.

With `N[C@@H](Cc1ccc(OCCCN2CCC(=C3c4ccc(Cl)cc4CCc4cccnc43)CC2)cc1)C(=O)O` [Example 22, (S)-2-amino-3-(4-(3-(4-(8-chloro-5,6-dihydro-11H-benzo[5,6]cyclohepta[1,2-b]pyridin-11-ylidene)piperidin-1-yl)propoxy)phenyl)propionic acid trihydrochloride], the IC50 amounted to 1.3 nM. This IC50 lies about 1.6-fold lower than the previous one.

As for `O=C(CN1CCC(=C2c3ccc(Cl)cc3CCc3cccnc32)CC1)c1ccc(Br)cc1` [Example 24, 1-(4-bromophenyl)-2-(4-(8-chloro-5,6-dihydro-11H-benzo[5,6]cyclohepta[1,2-b]pyridin-11-ylidene)piperidin-1-yl)ethan-1-one], 8.1 nM corresponded to half-maximal inhibition (IC50).

As for `OC(CN1CCC(=C2c3ccc(Cl)cc3CCc3cccnc32)CC1)c1ccc(Br)cc1` (stereo not shown) [Example 27, 1-(4-bromophenyl)-2-(4-(8-chloro-5,6-dihydro-11H-benzo[5,6]cyclohepta [1,2-b]pyridin-11-ylidene)piperidin-1-yl)ethan-1-ol], the IC50 is 1.19 nM. This IC50 lies about 6.8-fold lower than the previous one.

In turn, `O=C1C2C(C(=O)N1CCCCN1CCC(=C3c4ccc(Cl)cc4CCc4cccnc43)CC1)[C@H]1CC[C@@H]2C1` (stereo partly drawn) [Example 30, (4R,7S)-2-(4-(4-(8-chloro-5,6-dihydro-11H-benzo[5,6]cyclohepta[1,2-b]pyridin-11-ylidene)piperidin-1-yl)butyl)hexahydro-1H-4,7-methanoisoindole-1,3(2H)-dione] had a concentration for half-maximal inhibition (IC50) of 0.15 nM.

As for `COc1cccc(CCc2ccccc2OCC(O)CN2CCC(=C3c4ccc(Cl)cc4CCc4cccnc43)CC2)c1` (stereo not shown) [Example 60, 1-(4-(8-chloro-5,6-dihydro-11H-benzo[5,6]cyclohepta[1,2-b]pyridin-11-ylidene)piperidin-1-yl)-3-(2-(3-methoxyphenethyl)phenoxy)propan-2-ol], half-maximal inhibition (IC50) was put at 30.8 nM.
